Test results reported in ChEMBL document CHEMBL1201862, “PubChem BioAssay data set” (2004).
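Assay format: 96-well plates, 48-hour exposure. GI50: concentration for 50% inhibition of growth.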 The source made the active and inactive calls. Cut-off read from the data, not from the text of the source: active = GI50 up to about 1.1 µM and inactive = higher.

Columns and labels:
Assay in all cases: NCI anticancer screen, dose series, 48 h
[1] = tested on: SK-OV-3
[2] = tested on: HOP-18
[3] = tested on: SF-295
[4] = tested on: HOP-92
[5] = tested on: UO-31
[6] = tested on: K562
[7] = tested on: SR
[8] = tested on: HCT-15
[9] = tested on: SK-MEL-5
[10] = tested on: SF-539
[11] = tested on: 786-0
[12] = tested on: SNB-19
[13] = tested on: LXFL 529
[14] = tested on: HOP-62
[15] = tested on: KM12
[16] = tested on: EKVX
[17] = tested on: CCRF-CEM
[18] = tested on: OVCAR-8
[19] = tested on: DLD-1
[20] = tested on: M19-MEL
[21] = tested on: HL-60
[22] = tested on: IGROV-1
[23] = tested on: SNB-75
[24] = tested on: SF-268
[25] = tested on: M14
[26] = tested on: SNB-78
[27] = tested on: NCI-H23
[28] = tested on: HT-29
[29] = tested on: OVCAR-4
[30] = tested on: A549
[31] = tested on: COLO 205
[32] = tested on: SK-MEL-28
[33] = tested on: TK-10
[34] = tested on: NCI-H226
[35] = tested on: XF498
[36] = tested on: ACHN
[37] = tested on: MOLT-4
[38] = tested on: HCC 2998
[39] = tested on: A498
[40] = tested on: SN12C
[41] = tested on: CAKI-1
[42] = tested on: OVCAR-3
[43] = tested on: OVCAR-5
[44] = tested on: UACC-257
[45] = tested on: HCT-116
[46] = tested on: DMS-114
[47] = tested on: SW-620
[48] = tested on: DMS-273
[49] = tested on: UACC-62
[50] = tested on: U-251
[51] = tested on: KM-20L2
[52] = tested on: NCI-H460
[53] = tested on: RPMI-8226
[54] = tested on: RXF 393
[55] = tested on: Malme-3M
[56] = tested on: LOX IMVI
[57] = tested on: PC-3
[58] = tested on: NCI-H522
[59] = tested on: MDA-MB-435
[60] = tested on: MDA-N
[61] = tested on: T47D
[62] = tested on: MDA-MB-231
[63] = tested on: SK-MEL-2
[64] = tested on: Hs-578T
[65] = tested on: NCI/ADR-RES
[66] = tested on: DU-145
[67] = tested on: BT-549
[68] = tested on: MCF7

CCC(=O)c1c(NOC2OCC(OC(C)=O)C(OC(C)=O)C2OC(C)=O)nc(OC)n(C)c1=O (stereo not drawn)
GI50 [1]: > 100 µM (inactive)
GI50 [2]: < 0.01 µM (active)
GI50 [3]: > 100 µM (inactive)
GI50 [4]: > 100 µM (inactive)
GI50 [5]: > 100 µM (inactive)
GI50 [6]: > 100 µM (inactive)
GI50 [7]: > 100 µM (inactive)
GI50 [8]: > 100 µM
GI50 [9]: > 100 µM (inactive)
GI50 [10]: > 100 µM (inactive)
GI50 [11]: > 100 µM (inactive)
GI50 [12]: > 100 µM (inactive)
GI50 [13]: > 100 µM (inactive)
GI50 [14]: > 100 µM (inactive)
GI50 [15]: > 100 µM (inactive)
GI50 [16]: > 100 µM (inactive)
GI50 [17]: > 100 µM (inactive)
GI50 [18]: > 100 µM (inactive)
GI50 [19]: > 100 µM (inactive)
GI50 [20]: > 100 µM (inactive)
GI50 [21]: > 100 µM (inactive)
GI50 [22]: > 100 µM (inactive)
GI50 [23]: > 100 µM (inactive)
GI50 [24]: > 100 µM (inactive)
GI50 [25]: > 100 µM (inactive)
GI50 [26]: > 100 µM (inactive)
GI50 [27]: > 100 µM (inactive)
GI50 [28]: > 100 µM (inactive)
GI50 [29]: > 100 µM (inactive)
GI50 [30]: > 100 µM (inactive)
GI50 [31]: > 100 µM (inactive)
GI50 [32]: > 100 µM (inactive)
GI50 [33]: > 100 µM (inactive)
GI50 [34]: > 100 µM (inactive)
GI50 [35]: > 100 µM (inactive)
GI50 [36]: > 100 µM (inactive)
GI50 [37]: > 100 µM (inactive)
GI50 [38]: > 100 µM (inactive)
GI50 [39]: > 100 µM (inactive)
GI50 [40]: > 100 µM (inactive)
GI50 [41]: > 100 µM (inactive)
GI50 [42]: > 100 µM (inactive)
GI50 [43]: > 100 µM (inactive)
GI50 [44]: > 100 µM (inactive)
GI50 [45]: > 100 µM (inactive)
GI50 [46]: > 100 µM (inactive)
GI50 [47]: > 100 µM (inactive)
GI50 [48]: > 100 µM (inactive)
GI50 [49]: > 100 µM (inactive)
GI50 [50]: > 100 µM (inactive)
GI50 [51]: > 100 µM (inactive)
GI50 [52]: > 100 µM (inactive)
GI50 [53]: > 100 µM (inactive)
GI50 [54]: > 100 µM (inactive)
GI50 [55]: > 100 µM (inactive)
GI50 [56]: > 100 µM (inactive)

CCN(CC)CCOC(=O)Cc1cccc2c(=O)cc(-c3ccccc3)oc12
GI50 [1]: 48.5 µM (inactive)
GI50 [2]: 78.2 µM (inactive)
GI50 [3]: 55.6 µM (inactive)
GI50 [4]: 21.7 µM (inactive)
GI50 [5]: 5.79 µM (inactive)
GI50 [6]: 40.3 µM (inactive)
GI50 [7]: 24.4 µM (inactive)
GI50 [8]: 18.5 µM
GI50 [57]: 49.3 µM (inactive)
GI50 [9]: 32 µM (inactive)
GI50 [10]: 44.1 µM (inactive)
GI50 [11]: 55.1 µM (inactive)
GI50 [12]: 56.1 µM (inactive)
GI50 [14]: 46.8 µM (inactive)
GI50 [15]: 34.8 µM (inactive)
GI50 [16]: 40.7 µM (inactive)
GI50 [17]: 34.4 µM (inactive)
GI50 [18]: 51.4 µM (inactive)
GI50 [58]: 40.8 µM (inactive)
GI50 [59]: 55.1 µM (inactive)
GI50 [60]: 22.3 µM (inactive)
GI50 [61]: 30.4 µM (inactive)
GI50 [19]: 94.8 µM (inactive)
GI50 [20]: 84.5 µM (inactive)
GI50 [21]: 36.3 µM (inactive)
GI50 [22]: 44.6 µM (inactive)
GI50 [23]: 41.7 µM (inactive)
GI50 [24]: 47.2 µM (inactive)
GI50 [25]: 41.7 µM (inactive)
GI50 [26]: 84.9 µM (inactive)
GI50 [27]: 45.8 µM (inactive)
GI50 [62]: 26.4 µM (inactive)
GI50 [28]: 44.1 µM (inactive)
GI50 [63]: > 150 µM (inactive)
GI50 [29]: 35.9 µM (inactive)
GI50 [64]: 28.3 µM (inactive)
GI50 [30]: 6.62 µM (inactive)
GI50 [31]: 38.4 µM (inactive)
GI50 [32]: 54 µM (inactive)
GI50 [33]: 44.1 µM (inactive)
GI50 [65]: 50 µM (inactive)
GI50 [66]: 40.3 µM (inactive)
GI50 [34]: 38.8 µM (inactive)
GI50 [35]: 18 µM (inactive)
GI50 [36]: 45.2 µM (inactive)
GI50 [37]: 42.9 µM (inactive)
GI50 [67]: 40.7 µM (inactive)
GI50 [38]: 44.6 µM (inactive)
GI50 [39]: 54.3 µM (inactive)
GI50 [40]: 51.2 µM (inactive)
GI50 [41]: 13.6 µM (inactive)
GI50 [42]: 52.8 µM (inactive)
GI50 [43]: 57.9 µM (inactive)
GI50 [44]: 54.3 µM (inactive)
GI50 [68]: 54.1 µM (inactive)
GI50 [45]: 48.3 µM (inactive)
GI50 [46]: 31.8 µM (inactive)
GI50 [47]: 50.7 µM (inactive)
GI50 [48]: 361 µM (inactive)
GI50 [49]: 29 µM (inactive)
GI50 [50]: 50.2 µM (inactive)
GI50 [51]: 95.3 µM (inactive)
GI50 [52]: 10.2 µM (inactive)
GI50 [53]: 35.8 µM (inactive)
GI50 [54]: 41.5 µM (inactive)
GI50 [55]: 39.3 µM (inactive)
GI50 [56]: 29.6 µM (inactive)
